Tests used:
hCB2 = hCB2 (Homo sapiens, UniProt P34972); assay: In vitro binding assay using hCB2-CHO membranes, [3H]-CP-55,940 displacement (Protocol IV); design: expressed in transfected cells; host or cells: CHO (hCB2-CHO, generated in-house); conditions: hCB2-CHO membranes, [3H]-CP-55,940 displacement
Procedure, shortened: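 Compounds were tested at a single 300 nM final concentration for displacing 0.75 nM [3H]-CP-55,940 from hCB2-CHO membranes (1 h, 30 °C, 50 mM Tris pH 7.4, 5 mM MgCl2, 1 mM EDTA, 0.1% BSA). Filter-bound radioactivity was counted, with 0.5 μM unlabelled CP-55,940 for nonspecific binding; results are % displacement.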

CB1 [1] = target: T1, CB1 (Rattus norvegicus, UniProt P20272); assay: GTPγS binding assay, CB1 functional assay in rat cerebellar membrane (Protocol VIII); assay type: biochemical; design: 10 μg rat cerebellum membrane; from tissue; host or cells: rat cerebellum membrane, prepared in-house; conditions: for Per Se % Stimulation: GTPγS binding over basal, rat cerebellar membrane; for % Inhibition of WIN-55212-2 induced stimulation: GTPγS binding
Procedure, shortened: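 Rat cerebellar membranes (10 μg) incubated 1 h at 30 °C with 0.2 nM [35S]GTPγS, 50 μM GDP, and compound at 1 μM or 300 nM, alone or with 1 μM WIN 55,212-2, in Tris/MgCl2/EGTA/NaCl pH 7.4. Filter-bound radioactivity counted; percent stimulation calculated against basal specific binding (nonspecific defined by 10 μM GTPγS).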

CB1 [2] = target: T1, CB1; assay: Rat CB1 receptor binding using brain membrane, [3H]SR141716A displacement (Protocol I); design: CB1 receptor present in a rat brain membrane preparation; from tissue; host or cells: rat brain membrane; conditions: rat brain membrane, [3H]SR141716A displacement
hCB1 = hCB1 (Homo sapiens, UniProt P21554); assay: In vitro binding assay using hCB1-CHO membranes, [3H]-CP-55,940 displacement (Protocol II); design: expressed in transfected cells; host or cells: CHO (hCB1-CHO, generated in-house)
Description: II. Protocol for In Vitro Assay Using hCB1-CHO Membranes
The reaction was set up in a total volume of 200 μl in PEI (Poly(ethyleneimine)) (0.2%) precoated Millipore GFB (Glass Fibre-B) filter plates. 1 mM stocks of test compounds were prepared in DMSO and tested at a final concentration of 300 nM. The non-specific binding was determined by 0.5 μM CP-55, 940. […] The assay mixture (with or without the test compound) was incubated at 37° C. for 1 hour. The reaction was stopped by rapid filtration under vacuum and the radioactivity on the filters was measured by liquid scintillation counting.

[3] = tested at 1 uM in presence of 1 μM WIN 55,212-2

T1 sequence (P20272 whole entry): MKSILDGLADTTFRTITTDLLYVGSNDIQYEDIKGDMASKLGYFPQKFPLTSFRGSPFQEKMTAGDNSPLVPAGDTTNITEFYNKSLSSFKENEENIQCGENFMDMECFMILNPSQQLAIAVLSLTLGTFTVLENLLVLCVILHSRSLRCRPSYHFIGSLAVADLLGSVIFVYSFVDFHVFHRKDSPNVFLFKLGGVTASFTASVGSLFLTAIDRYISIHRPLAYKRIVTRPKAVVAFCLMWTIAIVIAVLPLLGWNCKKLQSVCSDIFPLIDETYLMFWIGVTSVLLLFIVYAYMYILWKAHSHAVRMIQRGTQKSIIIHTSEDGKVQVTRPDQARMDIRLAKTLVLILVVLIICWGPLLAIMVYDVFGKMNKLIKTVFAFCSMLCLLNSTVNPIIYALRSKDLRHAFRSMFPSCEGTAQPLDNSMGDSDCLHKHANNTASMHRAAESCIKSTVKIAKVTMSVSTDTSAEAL
Chain of hCB1 (P21554 whole entry): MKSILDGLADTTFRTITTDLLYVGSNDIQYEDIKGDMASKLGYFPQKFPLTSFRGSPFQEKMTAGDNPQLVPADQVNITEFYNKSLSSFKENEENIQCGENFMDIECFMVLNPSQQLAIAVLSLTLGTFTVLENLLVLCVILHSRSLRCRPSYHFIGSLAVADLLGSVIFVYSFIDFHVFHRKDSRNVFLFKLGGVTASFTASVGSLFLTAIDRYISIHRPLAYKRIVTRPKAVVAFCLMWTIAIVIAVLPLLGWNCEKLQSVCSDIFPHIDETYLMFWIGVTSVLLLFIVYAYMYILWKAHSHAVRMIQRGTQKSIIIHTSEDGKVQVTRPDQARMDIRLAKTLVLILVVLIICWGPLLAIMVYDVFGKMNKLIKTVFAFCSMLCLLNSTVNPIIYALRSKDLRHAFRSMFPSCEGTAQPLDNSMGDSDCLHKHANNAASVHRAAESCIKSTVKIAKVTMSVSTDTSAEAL
Chain of hCB2 (P34972 whole entry): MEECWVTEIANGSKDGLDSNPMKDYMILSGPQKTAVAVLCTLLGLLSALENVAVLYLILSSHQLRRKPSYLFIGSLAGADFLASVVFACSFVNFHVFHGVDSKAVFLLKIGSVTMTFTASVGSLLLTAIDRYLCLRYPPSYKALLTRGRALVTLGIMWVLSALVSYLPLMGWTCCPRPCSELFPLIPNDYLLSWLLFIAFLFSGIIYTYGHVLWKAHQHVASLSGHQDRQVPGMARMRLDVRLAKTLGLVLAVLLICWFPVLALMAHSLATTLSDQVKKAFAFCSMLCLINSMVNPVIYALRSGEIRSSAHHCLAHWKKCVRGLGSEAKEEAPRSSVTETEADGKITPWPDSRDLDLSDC

SMILES | % Displacement Protocol IV (hCB2) [%] | Per Se % Stimulation (CB1 [1]; tested at 1 uM) [%] | % Inhibition of WIN-55212-2 induced stimulation (CB1 [1]; [3]) [%] | % Displacement Protocol I (CB1 [2]) [%] | % Displacement Protocol II (hCB1) [%] | Per Se % Stimulation (CB1 [1]; tested at 300 nM) [%] | % Inhibition of WIN-55212-2 induced stimulation (CB1 [1]; tested at 300 nM in presence of 1 μM WIN 55,212-2) [%]
O=C(NCc1ccccc1)c1nn(-c2ccccc2)c2c1C1CC3CC(C1)CC2C3 [Example 170, N(7)-Benzyl-5-phenyl-5,6-diazatetracyclo[7.3.1.1^3,11.0^4,8]tetradeca-4(8)-6-diene-7-carboxamide] | 27.16 | 17.5 | 80.3 | 40.0 | 29.49 | – | –
O=C(c1nn(-c2ccc(Cl)cc2)c2c1C1CCC2C1)N1CCCCC1 (centres unmarked) [Example 210, 1-(4-Chlorophenyl)-4,5,6,7-tetrahydro-1H-4,7-methano-indazol-3-yl piperidino methanone] | 17.69 | – | – | 12.6 | 11.58 | – | –
Cn1nc(C(=O)NN2CCCCC2)c2c1C1CC3CC(CC2C3)C1 [Example 189b, N(7)-Piperidino-5-methyl-5,6-diazatetracyclo[7.3.1.1^3,11.0^4,8]tetradeca-4(8)-6-diene-7-carboxamide] | 2.56 | – | – | 3 | 24.03 | – | –
O=C(NN(c1ccccc1)c1ccccc1)c1nn(-c2ccc(Cl)cc2)c2c1C1CCC2C1 (centres unmarked) [Example 236] | – | 8.0 | 83.0 | 75.5 | 55.25 | – | –
Cn1nc2c(c1C(=O)NN1CCCCC1)C1CC3CC(CC2C3)C1 [Example 189a, N(7)-Piperidino-6-methyl-5,6-diazatetracyclo[7.3.1.1^3,11.0^4,8]tetradeca-4(8)-6-diene-7-carboxamide] | 0.81 | – | – | 7 | 21.2 | – | –
O=C(NN1CCCCC1)c1nn(-c2ccccc2Br)c2c1C1CC3CC(C1)CC2C3 [Example 101, N(7)-Piperidino-5-(2-bromophenyl)-5,6-diazatetracyclo[7.3.1.1^3,110^4,8]tetradeca-4(8),6-diene-7-carboxamide] | 0 | – | – | 28.8 | 5.75 | – | –
CN(NC(=O)c1nn(-c2ccc(Cl)cc2Cl)c2c1C1CCC2c2ccccc21)c1ccc(Cl)cc1Cl (centres unmarked) [Example 505, N(12)-{N′-[(2,4-Dichlorophenyl)-N′-methyl]amino}-10-(2,4-dichlorophenyl)-10,11-diazatetracyclo[6.5.2.0^2,7.0^9,13]pentadeca-2,4,6,9(13),11-pentaene-12-carboxamide] | – | 15.6 | 94.4 | 90.6 | 77.51 | – | –
C[C@H](NC(=O)c1nn(-c2ccc(Cl)cc2Cl)c2c1C1CCC2C1)c1ccccc1 (stereo partly drawn) [Example 252, N(3)-[S-(1-phenylethyl)]-1-(2,4-dichlorophenyl)-4,5,6,7-tetrahydro-1H-4,7-methano-indazole-3-carboxamide] | – | – | – | 99.8 | 74.52 | 48.2 | 58.8
O=C(NCc1ccccc1)c1nn(-c2ccccc2Cl)c2c1C1CC3CC(C1)CC2C3 [Example 182, N(7)-Benzyl-5-(2-chlorophenyl)-5,6-diazatetracyclo[7.3.1.1^3,11.0^4,8]tetradeca-4(8)-6-diene-7-carboxamide] | 12.78 | – | – | 39.9 | 19.35 | – | –
O=C(c1nn(-c2ccccc2)c2c1C1CC3CC(C1)CC2C3)N1CCCCC1 [Example 171, N(7)-phenyl-6,7-diazatetracyclo[7.3.1.1^3,11.0^4,8]tetradeca-4(8)-5-dien-5-yl-piperidino methanone] | 0.56 | – | – | 0 | 19.37 | – | –
